# According to patent US6534523B1, “Hepatitis C inhibitor tri-peptides” (Boehringer Ingelheim (Canada) Ltd., priority 1998, dated 2003):
# Molecular target: HCV NS3 protease (UniProt P26663)
# Format: biochemical, HCV genotype 1b
# Set-up: rows headed: IC50 (μM); IC50 (μM)
# Conditions: Table 6
# Experimental: Recombinant HCV NS3 Protease/NS4A Cofactor Peptide Radiometric Assay
# The enzyme was cloned, expressed and prepared according to the protocol described in Example 36. The enzyme was stored at −80° C., thawed on ice and diluted just prior to use in the assay buffer containing the NS4A cofactor peptide.
# The substrate used for the NS3 protease/NS4A cofactor peptide radiometric assay, DDIVPC-SMSYTW, is cleaved between the cysteine and the serine residues by the enzyme. The sequence DDIVPC-SMSYTW corresponds to the NS5A/NS5B natural cleavage site in which the cysteine residue in P2 has been substituted for a proline. […] (molar ratio enzyme:cofactor 1:100) in the absence or presence of inhibitors. The separation of substrate from products is performed by adding avidin-coated agarose beads to the assay mixture followed by filtration. The amount of SMS[^125I-Y]TW product found in the filtrate allows for the calculation of the percentage of substrate conversion and of the percentage of inhibition.
# The enzymatic reaction was initiated by the addition of the enzyme/NS4A peptide solution and the assay mixture was incubated for 40 min at 23° C. under gentle agitation. Ten (10) μL of 0.5N NaOH were added and 10 μL 1 M MES, pH 5.8 were added to quench the enzymatic reaction.
# A non-linear curve fit with the Hill model was applied to the inhibition-concentration data, and the 50% effective concentration (IC50) was calculated by the use of SAS software (Statistical Software System; SAS Institute, Inc. Cary, N.C.). […]
# The NS2-NS5B-3′ non coding region was cloned by RT-PCR into the pCR®3 vector (Invitrogen) using RNA extracted from the serum of an HCV genotype 1b infected individual (provided by Dr. Bernard Willems, Hôpital St-Luc, Montréal, Québec, Canada). The NS3-NS4A DNA region was then subcloned by PCR into the pFastBac™ HTa baculovirus expression vector (Gibco/BRL). The vector sequence includes a region encoding a 28-residue N-terminal sequence which contains a hexahistidine tag. The Bac-to-Bac™ baculovirus expression system (Gibco/BRL) was used to produce the recombinant baculovirus. The full length mature NS3 and NS4A heterodimer protein (His-NS3-NS4AFL) was expressed by infecting 10^6 Sf21 cells/mL with the recombinant baculovirus at a multiplicity of infection of 0.1-0.2 at 27° C. The infected culture was harvested 48 to 64 h later by centrifugation at 4° C. The cell pellet was homogenized in 50 mM NaPO4, pH 7.5, 40% glycerol (w/v), 2 mM β-mercaptoethanol, in presence of a cocktail of protease inhibitors. His-NS3-NS4AFL was then extracted from the cell lysate with 1.5% NP-40, 0.5% Triton X-100, 0.5M NaCl, and a DNase treatment. After ultracentrifugation, the soluble extract was diluted 4-fold and bound on a Pharmacia Hi-Trap Ni-chelating column. […] The His-NS3-NS4AFL was stored at −80° C. in 50 mM sodium phosphate, pH 7.5, 10% (w/v) glycerol, 0.5 M NaCl, 0.25 M imidazole, 0.1% NP-40. It was thawed on ice and diluted just prior to use. The protease activity of His-NS3-NS4AFL was assayed in 50 mM Tris-HCl, pH 8.0, 0.25 M sodium citrate, 0.01% (w/v) n-dodecyl-β-D-maltoside, 1 mM TCEP. Five (5) μM of the internally quenched substrate anthranilyl-DDIVPAbu[C(O)—O]-AMY(3-NO2)TW-OH in presence of various concentrations of inhibitor were incubated with 1.5 nM of His-NS3-NS4AFL for 45 min at 23° C. […] The reaction was terminated with the addition of 1M MES, pH 5.8. Fluorescence of the N-terminal product was monitored on a Perkin-Elmer LS-50B fluorometer equipped with a 96-well plate reader (excitation wavelength: 325 nm; emission wavelength: 423 nm).
# The following tables list compounds representative of the invention.
# Chain of HCV NS3 protease (P26663 1027-1206, other chains not shown): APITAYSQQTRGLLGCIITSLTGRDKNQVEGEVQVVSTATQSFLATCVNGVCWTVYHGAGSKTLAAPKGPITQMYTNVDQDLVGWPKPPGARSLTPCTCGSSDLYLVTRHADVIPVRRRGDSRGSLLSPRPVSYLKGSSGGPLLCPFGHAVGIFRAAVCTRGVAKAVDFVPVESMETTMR
row,SMILES,IC50 [µM]
1,C=CC1CC1(NC(=O)C1CC(Oc2cc(-c3csc(NC(C)=O)n3)nc3cc(N(C)C)ccc23)CN1C(=O)C(NC(=O)OC(C)(C)C)C(C)(C)C)C(=O)O (stereo not drawn) [compound 628],0.011
2,C=CC1CC1(NC(=O)C1CC(Oc2cc(-c3csc(NC(C)C)n3)nc3cc(N(C)C)ccc23)CN1C(=O)C(NC(=O)OC(C)(C)C)C(C)(C)C)C(=O)O (stereo not drawn) [compound 629],0.02
3,C=CC1CC1(NC(=O)C1CC(Oc2cc(-c3csc(NC(C)=O)n3)nc3cc(N(CC)CC)ccc23)CN1C(=O)C(NC(=O)OC(C)(C)C)C(C)(C)C)C(=O)O (stereo not drawn) [compound 630],0.043

# Same assay, conditions: Table 7
row,SMILES,IC50 [µM]
1,C=CC1CC1(NC(=O)C1CC(Oc2cc(-c3cnn(C)c3)nc3cc(OC)ccc23)CN1C(=O)C(NC(=O)OC(C)(C)C)C(C)(C)C)C(=O)O (stereo not drawn) [compound 701],0.028
2,C=CC1CC1(NC(=O)C1CC(Oc2cc(C=Cc3ccccc3)nc3cc(OC)ccc23)CN1C(=O)C(NC(=O)OC(C)(C)C)C(C)(C)C)C(=O)O (stereo not drawn) [compound 702],0.1
3,C=CC1CC1(NC(=O)C1CC(Oc2cc(OCC)nc3cc(OC)ccc23)CN1C(=O)C(NC(=O)OC(C)(C)C)C(C)(C)C)C(=O)O (stereo not drawn) [compound 703],0.047
4,C=CC1CC1(NC(=O)C1CC(Oc2cc(N3CCc4ccccc43)nc3cc(OC)ccc23)CN1C(=O)C(NC(=O)OC(C)(C)C)C(C)(C)C)C(=O)O (stereo not drawn) [compound 704],0.24
5,C=CC1CC1(NC(=O)C1CC(Oc2cc(N3CCOCC3)nc3cc(OC)ccc23)CN1C(=O)C(NC(=O)OC(C)(C)C)C(C)(C)C)C(=O)O (stereo not drawn) [compound 705],0.13
6,C=CC1CC1(NC(=O)C1CC(Oc2cc(-c3cccs3)nc3cc(OC)ccc23)CN1C(=O)C(NC(=O)OC(C)(C)C)C(C)(C)C)C(=O)O (stereo not drawn) [compound 706],0.032
7,C=CC1CC1(NC(=O)C1CC(Oc2cc(-c3nccs3)nc3cc(OC)ccc23)CN1C(=O)C(NC(=O)OC(C)(C)C)C(C)(C)C)C(=O)O (stereo not drawn) [compound 707],0.023
8,C=CC1CC1(NC(=O)C1CC(Oc2cc(N(C)c3ccccc3)nc3cc(OC)ccc23)CN1C(=O)C(NC(=O)OC(C)(C)C)C(C)(C)C)C(=O)O (stereo not drawn) [compound 708],0.15
9,C=CC1CC1(NC(=O)C1CC(Oc2cc(-c3csc(N)n3)nc3cc(OC)ccc23)CN1C(=O)C(NC(=O)OC(C)(C)C)C(C)(C)C)C(=O)O (stereo not drawn) [compound 709],0.021
10,C=CC1C[C@]1(NC(=O)[C@@H]1C[C@@H](Oc2cc(C(=O)O)nc3cc(OC)ccc23)CN1C(=O)[C@@H](NC(=O)OC(C)(C)C)C(C)(C)C)C(=O)O (stereo partly drawn) [compound 710],0.685
11,C=CC1CC1(NC(=O)C1CC(Oc2cc(-c3csc(C)n3)nc3cc(OC)ccc23)CN1C(=O)C(NC(=O)OC(C)(C)C)C(C)(C)C)C(=O)O (stereo not drawn) [compound 711],0.016
12,C=CC1C[C@]1(NC(=O)[C@@H]1C[C@@H](Oc2cc(N(C)C)nc3cc(OC)ccc23)CN1C(=O)[C@@H](NC(=O)OC(C)(C)C)C(C)(C)C)C(=O)O (stereo partly drawn) [compound 712],0.1
13,C=CC1CC1(NC(=O)C1CC(Oc2cc(-c3cscn3)nc3cc(OC)ccc23)CN1C(=O)C(NC(=O)OC(C)(C)C)C(C)(C)C)C(=O)O (stereo not drawn) [compound 713],0.026
14,C=CC1CC1(NC(=O)C1CC(Oc2cc(-c3csc(CC)n3)nc3cc(OC)ccc23)CN1C(=O)C(NC(=O)OC(C)(C)C)C(C)(C)C)C(=O)O (stereo not drawn) [compound 714],0.012
15,C=CC1CC1(NC(=O)C1CC(Oc2cc(-c3ccccn3)nc3cc(OC)ccc23)CN1C(=O)C(NC(=O)OC(C)(C)C)C(C)(C)C)C(=O)O (stereo not drawn) [compound 715],0.031
16,C=CC1CC1(NC(=O)C1CC(Oc2cc(-c3cccnc3)nc3cc(OC)ccc23)CN1C(=O)C(NC(=O)OC(C)(C)C)C(C)(C)C)C(=O)O (stereo not drawn) [compound 716],0.079
17,C=CC1CC1(NC(=O)C1CC(Oc2cc(-c3csc(NC)n3)nc3cc(OC)ccc23)CN1C(=O)C(NC(=O)OC(C)(C)C)C(C)(C)C)C(=O)O (stereo not drawn) [compound 717],0.028
18,C=CC1C[C@]1(NC(=O)[C@@H]1C[C@@H](Oc2cc(N)nc3cc(OC)ccc23)CN1C(=O)[C@@H](NC(=O)OC(C)(C)C)C(C)(C)C)C(=O)O (stereo partly drawn) [compound 718],0.16
